Laboratory results as given in patent US20150158810A1, “PREVENTION OR SUPPRESSION OF CYRSTALLISATION OF BORIC ACID PRESENT IN AN AQUEOUS PHASE” (COMMISSARIAT À L'ÉNERGIE ATOMIQUE ET AUX ÉNERGIES …, priority 2012, published 2015).

Assays:
[1] = crystallization of boric acid in aqueous phase, temperature cycle N; format: physicochemical
Experimental: (§1) The tests described in the examples hereafter are conducted by means of a device of the type of the one illustrated in the single FIGURE.
(§2) The device consists of a beaker 10 with a double glass wall 11, inside which flows a heat transfer fluid 12. The beaker 10 also contains a U-shaped metal tube 13, which contains a circulating heat transfer fluid 14.
(§3) The temperatures of the heat transfer fluids 12 and 14 are each adjusted independently of the other, by a heat generator (not shown in the single FIGURE).
(§4) However, the temperature of the heat transfer fluid 14 is adjusted so that it is always strictly less than that of the heat transfer fluid 12, typically lower by 1° C. to 10° C. If it is assumed that heat conduction of the material making up the metal tube 13 occurs without any notable loss, the walls of the tube 13 […] thus form a so-called ? cold ? element.
(§5) Two temperature cycles may be applied to an aqueous phase 15 containing boric acid, which is poured into the beaker 10.
A temperature cycle ? […]
(§6) Regardless of the relevant temperature cycle, a crystallization rate is defined at the end of one of these temperature cycles, which corresponds to the ratio of the mass of boric acid crystals measured at the end of this cycle, to the total initially introduced mass of boric acid.

[2] = crystallization of boric acid in aqueous phase, temperature cycle P (with a penalty); format: physicochemical
Experimental: as §1, §2, §3, §4, §5
A temperature cycle ? P ? […]
as §6

Row | SMILES | reduction in the crystallization of boric acid in an aqueous phase in presence of the compound [1] | reduction of the crystallization of boric acid in an aqueous phase in presence of the compound [2]
1 | NC(CO)(CO)CO [Tris, 2-amino-2-(hydroxymethyl)-propane-1,3-diol] | appreciable reduction | –
2 | OCC(CO)(CO)CO [pentaerythritol] | appreciable reduction | large reduction
